Test results: ChEMBL document CHEMBL1128186, “Steroidal spiro-gamma-lactones that inhibit 17 beta-hydroxysteroid dehydrogenase activity in human placental microsomes” (J Med Chem, 1995)

Assay: The compound was tested at a concentration of 1 uM for inhibitory activity against 17 beta-hydroxysteroid dehydrogenase from human placental microsomes

SMILES | inhibition
C[C@]12CC[C@@]3(CCC(=O)O3)CC1CC[C@@H]1[C@@H]2CC[C@@]2(C)[C@H]1CC[C@@]21CCC(=O)O1 (some centres undefined) | 11%
C[C@]12CC[C@@H]3c4ccc(OCc5ccccc5)cc4CC[C@H]3[C@@H]1CC[C@@]21CCC(=O)O1 | 11%
COc1ccc2c(c1)CC[C@@H]1[C@@H]2CC[C@@]2(C)[C@H]1CC[C@@]21CCC(=O)O1 | 55%
C[C@]12CCC(=O)C=C1C(=O)CC1C2CC[C@@]2(C)C1CC[C@@]21CCC(=O)O1 (some centres undefined) | 3%
C[C@]12CCC(=O)CC1CC[C@@H]1[C@@H]2CC[C@@]2(C)[C@H]1CC[C@@]21CCC(=O)O1 (some centres undefined) | 25%
C[C@]12CCC(=O)CC1C(=O)C[C@@H]1[C@@H]2CC[C@@]2(C)[C@H]1CC[C@@]21CCC(=O)O1 (some centres undefined) | 28%
C[C@]12CC[C@@H]3c4ccc(O)cc4CC[C@H]3[C@@H]1CC[C@@]21CCC(=O)O1 | 81%
C[C@]12CCC(=O)C=C1CC[C@@H]1[C@@H]2CC[C@@]2(C)[C@H]1CC[C@@]21CCC(=O)O1 | 3%
C[C@]12C=CC(=O)C=C1CCC1C2CC[C@@]2(C)C1CC[C@@]21CCC(=O)O1 (some centres undefined) | 6%
